Key:
[1] = in vitro; conditions: human, TOX HELA CC50 (μM)
Protocol: Black 384-well clear-bottom microtiter plates (Corning, Amsterdam, The Netherlands) were filled via acoustic drop ejection using the echo liquid handler (Labcyte, Sunnyvale, Calif.). 200 nL of compound stock solutions (100% DMSO) were transferred to the assay plates. 9 serial 4-fold dilutions of compound were made, creating per quadrant the same compound concentration. The assay was initiated by adding 10 μL of culture medium to each well (RPMI medium without phenol red, 10% FBS-heat inactivated, 0.04% gentamycin (50 mg/mL). All addition steps are done by using a multidrop dispenser (Thermo Scientific, Erembodegem, Belgium). Next, rgRSV224 virus (MOI=1) diluted in culture medium was added to the plates. rgRSV224 virus is an engineered virus that includes an additional GFP gene (Hallak L K, Spillmann D, Collins P L, Peeples M E. Glycosaminoglycan sulfation requirements for respiratory syncytial virus infection; Journal of virology (2000), 74(22), 10508-13) and was in-licensed from the NIH (Bethesda, Md., USA). Finally, 20 μL of a HeLa cell suspension (3,000 cells/well) were plated. Medium, virus- and mock-infected controls were included in each test. The wells contain 0.05% DMSO per volume. Cells were incubated at 37° C. in a 5% CO2 atmosphere. Three days post-virus exposure, viral replication was quantified by measuring GFP expression in the cells by an in house developed MSM laser microscope (Tibotec, Beerse, Belgium). The EC50 was defined as the 50% inhibitory concentration for GFP expression. In parallel, compounds were incubated for three days in a set of white 384-well microtiter plates (Corning) and the cytotoxicity of compounds in HeLa cells was determined by measuring the ATP content of the cells using the ATPlite kit (Perkin Elmer, Zaventem, Belgium) according to the manufacturer's instructions. The CC50 was defined as the 50% concentration for cytotoxicity.

[2] = tested on: rgRSV224 virus; assay: Antiviral activity: rgRSV224 (GFP) replication in HeLa cells; assay type: cell-based, respiratory syncytial virus (RSV); conditions: human respiratory syncytial virus, HeLa, 72 h, read-out: RSV HELA EC50 (μM), rgRSV224 virus (MOI=1), HeLa cells, GFP expression three days post-virus exposure

Compound `C[C@@H]1c2ccccc2CCN1C(=O)c1cc(C2CC2)n2nc(-c3ccc(N4C[C@H](C(N)=O)C[C@H]4C)cc3F)cc2n1` (single isomer, unassigned) [Compound 32, (3*R,5*R)-1-(4-{7-cyclopropyl-5-[(1R)-1-methyl-1,2,3,4-tetrahydroisoquinoline-2-carbonyl]pyrazolo[1,5-a]pyrimidin-2-yl}-3-fluorophenyl)-5-methylpyrrolidine-3-carboxamide] has a CC50 at 3 days [1] of 32.1 µM, an EC50 [2] of 0.06 µM and a melting point of 297.57 °C.
Compound `C[C@@H]1c2ccccc2CCN1C(=O)c1cc(C2CC2)n2nc(-c3ccc(N4C[C@H](C(N)=O)C[C@@H]4C)cc3F)cc2n1` (single isomer, unassigned) [Compound 33, (3*R,5*S)-1-(4-{7-cyclopropyl-5-[(1R)-1-methyl-1,2,3,4-tetrahydroisoquinoline-2-carbonyl]pyrazolo[1,5-a]pyrimidin-2-yl}-3-fluorophenyl)-5-methylpyrrolidine-3-carboxamide] has a CC50 at 3 days [1] of 34.5 µM, an EC50 [2] of 0.043 µM and a melting point of 292.7 °C.
With `C[C@@H]1c2ccsc2CCN1C(=O)c1cc(C2CC2)n2nc(-c3ccc(N4CC[C@H](CC(N)=O)C4)cc3F)cc2n1` (single isomer, unassigned) [Compound 42, 2-[(3R)-1-(4-{7-Cyclopropyl-5-[(4*R)-4-methyl-4,5,6,7-tetrahydro-thieno[3,2-c]pyridine-5-carbonyl]pyrazolo[1,5-a]pyrimidin-2-yl}-3-fluorophenyl)pyrrolidin-3-yl]acetamide] the CC50 at 3 days [1] was 28.9 µM, the EC50 [2] was 0.025 µM and the melting point was 206.84 °C.
Compound `C[C@@H]1c2ccsc2CCN1C(=O)c1cc(C2CC2)n2nc(-c3ccc(N4CC[C@@H](CC(N)=O)C4)cc3F)cc2n1` (single isomer, unassigned) [Compound 43, 2-[(3S)-1-(4-{7-Cyclopropyl-5-[(4*R)-4-methyl-4,5,6,7-tetrahydro-thieno[3,2-c]pyridine-5-carbonyl]pyrazolo[1,5-a]pyrimidin-2-yl}-3-fluorophenyl)pyrrolidin-3-yl]acetamide] has a CC50 at 3 days [1] of 29.8 µM, an EC50 [2] of 0.017 µM and a melting point of 214.36 °C.
Work on `C[C@@H]1c2ccsc2CCN1C(=O)c1cc(C2CC2)n2nc(-c3ccc(N4CC[C@H](C(N)=O)C4)cc3F)cc2n1` (single isomer, unassigned) [Compound 46, (3S)-1-(4-{7-Cyclopropyl-5-[(4*R)-4-methyl-4,5,6,7-tetrahydro-thieno[3,2-c]pyridine-5-carbonyl]pyrazolo[1,5-a]pyrimidin-2-yl}-3-fluorophenyl)pyrrolidine-3-carboxamide] yielded a CC50 at 3 days [1] of 31.3 µM, an EC50 [2] of 0.007 µM and a melting point of 270 °C.
For `C[C@@H]1c2cc(F)ccc2CCN1C(=O)c1cc(C2CC2)n2nc(-c3ccc(N4CC[C@H](C(N)=O)C4)cc3F)cc2n1` (single isomer, unassigned) [Compound 47, (3S)-1-(4-{7-Cyclopropyl-5-[(1*R)-7-fluoro-1-methyl-1,2,3,4-tetrahydroisoquinoline-2-carbonyl]pyrazolo[1,5-a]pyrimidin-2-yl}-3-fluorophenyl)pyrrolidine-3-carboxamide], the CC50 at 3 days [1] was 41.5 µM, the EC50 [2] was 0.009 µM and the melting point was 245.69 °C.
`C[C@@H]1c2ccccc2CCN1C(=O)c1cc(C2CC2)n2nc(-c3ccc(N4CC[C@@H](C(N)=O)[C@H]4C)cc3F)cc2n1` (single isomer, unassigned) [Compound 80, (2*R,3*R)-1-(4-{7-Cyclopropyl-5-[(1R)-1-methyl-1,2,3,4-tetrahydroisoquinoline-2-carbonyl]pyrazolo[1,5-a]pyrimidin-2-yl}-3-fluorophenyl)-2-methylpyrrolidine-3-carboxamide] showed a CC50 at 3 days [1] of 35.9 µM, an EC50 [2] of 0.091 µM and a melting point of 182.93 °C.
`C[C@@H]1c2ccccc2CCN1C(=O)c1cc(C2CC2)n2nc(-c3ccc(N4CC[C@H](C(N)=O)[C@H]4C)cc3F)cc2n1` (single isomer, unassigned) [Compound 81, (2*R,3*S)-1-(4-{7-Cyclopropyl-5-[(1R)-1-methyl-1,2,3,4-tetrahydroisoquinoline-2-carbonyl]pyrazolo[1,5-a]pyrimidin-2-yl}-3-fluorophenyl)-2-methylpyrrolidine-3-carboxamide] showed a CC50 at 3 days [1] of 38.4 µM, an EC50 [2] of 0.099 µM and a melting point of 271.19 °C.
With `C[C@@H]1c2ccccc2CCN1C(=O)c1cc(C2CC2)n2nc(-c3ccc(N4CC[C@@H](C(N)=O)[C@@H]4C)cc3F)cc2n1` (single isomer, unassigned) [Compound 82, (2*S,3*R)-1-(4-{7-Cyclopropyl-5-[(1R)-1-methyl-1,2,3,4-tetrahydroisoquinoline-2-carbonyl]pyrazolo[1,5-a]pyrimidin-2-yl}-3-fluorophenyl)-2-methylpyrrolidine-3-carboxamide] the CC50 at 3 days [1] was 33.1 µM, the EC50 [2] was 0.033 µM and the melting point was 294.89 °C.
Compound `C[C@@H]1c2ccccc2CCN1C(=O)c1cc(C2CC2)n2nc(-c3ccc(N4CC[C@H](C(N)=O)[C@@H]4C)cc3F)cc2n1` (single isomer, unassigned) [Compound 83, (2*S,3*S)-1-(4-{7-Cyclopropyl-5-[(1R)-1-methyl-1,2,3,4-tetrahydroisoquinoline-2-carbonyl]pyrazolo[1,5-a]pyrimidin-2-yl}-3-fluorophenyl)-2-methylpyrrolidine-3-carboxamide] has a CC50 at 3 days [1] of 42.4 µM, an EC50 [2] of 0.044 µM and a melting point of 235.56 °C.
In the case of `C[C@@H]1c2ccccc2CCN1C(=O)c1cc(C2CC2)n2nc(-c3ccc(N4CCC5(COC5)C4)cc3F)cc2n1` [Compound 5, (1R)-2-[7-Cyclopropyl-2-(2-fluoro-4-{2-oxa-6-azaspiro[3.4]octan-6-yl}phenyl)pyrazolo[1,5-a]pyrimidine-5-carbonyl]-1-methyl-1,2,3,4-tetrahydroisoquinoline], the CC50 at 3 days [1] is reported as over 25 µM, the EC50 [2] is reported as 0.118 µM and the melting point is reported as 220.25 °C.
For `C[C@@H]1c2ccccc2CCN1C(=O)c1cc(-c2cncc(F)c2)n2nc(-c3ccc(N4CC[C@H](C(N)=O)C4)cc3F)cc2n1` [Compound 90, (3S)-1-{3-Fluoro-4-[7-(5-fluoropyridin-3-yl)-5-[(1R)-1-methyl-1,2,3,4-tetrahydro-isoquinoline-2-carbonyl]pyrazolo[1,5-a]pyrimidin-2-yl]phenyl}pyrrolidine-3-carboxamide], the EC50 [2] was 0.046 µM and the melting point was 269.08 °C.
In the case of `C[C@@H]1c2ccccc2CCN1C(=O)c1cc(C2CC2)n2nc(-c3ccc(N4CC[C@H](N)C4)cc3F)cc2n1` [Compound 93, (2-(4-((S)-3-aminopyrrolidin-1-yl)-2-fluorophenyl)-7-cyclopropylpyrazolo[1,5-a]pyrimidin-5-yl)((R)-1-methyl-3,4-dihydroisoquinolin-2(1H)-yl)methanone], the CC50 at 3 days [1] is reported as 13.4 µM and the EC50 [2] is reported as 0.039 µM.
Compound `C[C@@H]1c2ccccc2CCN1C(=O)c1cc(C2CC2)n2nc(-c3ccc(N4CC[C@H](NCC(F)(F)F)C4)cc3F)cc2n1` [Compound 94, (7-cyclopropyl-2-(2-fluoro-4-((S)-3-((2,2,2-trifluoroethyl)amino)pyrrolidin-1-yl)phenyl)pyrazolo[1,5-a]pyrimidin-5-yl)((R)-1-methyl-3,4-dihydroisoquinolin-2(1H)-yl)methanone] has a CC50 at 3 days [1] of over 100 µM and an EC50 [2] of 0.19 µM.
`C[C@@H]1c2ccccc2CCN1C(=O)c1cc(C2CC2)n2nc(-c3ccc(N4C[C@@H](O)[C@@H](O)C4)cc3F)cc2n1` [Compound 95, (7-cyclopropyl-2-(4-((3R,4S)-3,4-dihydroxypyrrolidin-1-yl)-2-fluorophenyl)pyrazolo[1,5-a]pyrimidin-5-yl)((R)-1-methyl-3,4-dihydroisoquinolin-2(1H)-yl)methanone] showed a CC50 at 3 days [1] of 31.1 µM and an EC50 [2] of 0.018 µM.
For `C[C@@H]1c2ccccc2CCN1C(=O)c1cc(C2CC2)n2nc(-c3ccc(N4C[C@H](O)C(F)(F)C4)cc3F)cc2n1` [Compound 97, (7-cyclopropyl-2-(4-((S)-3,3-difluoro-4-hydroxypyrrolidin-1-yl)-2-fluorophenyl)pyrazolo[1,5-a]pyrimidin-5-yl)((R)-1-methyl-3,4-dihydroisoquinolin-2(1H)-yl)methanone], the CC50 at 3 days [1] was 26.1 µM and the EC50 [2] was 0.053 µM.
Work on `C[C@@H]1c2ccccc2CCN1C(=O)c1cc(C2CC2)n2nc(-c3ccc(N4C[C@H](O)[C@H](O)[C@H]4CO)cc3F)cc2n1` [Compound 98] yielded a CC50 at 3 days [1] of 47.6 µM and an EC50 [2] of 0.039 µM.
For `C[C@@H]1c2ccccc2CCN1C(=O)c1cc(C2CC2)n2nc(-c3ccc(N4C[C@@H](O)[C@H](O)C4)cc3F)cc2n1` [Compound 100, (7-cyclopropyl-2-(4-((3R,4R)-3,4-dihydroxypyrrolidin-1-yl)-2-fluorophenyl)pyrazolo[1,5-a]pyrimidin-5-yl)((R)-1-methyl-3,4-dihydroisoquinolin-2(1H)-yl)methanone], the CC50 at 3 days [1] was 23.8 µM and the EC50 [2] was 0.011 µM.
`C[C@@H]1c2ccccc2CCN1C(=O)c1cc(C2CC2)n2nc(-c3ccc(N4CC[C@H](C(N)=S)C4)cc3F)cc2n1` [Compound 101, (S)-1-(4-(7-cyclopropyl-5-((R)-1-methyl-1,2,3,4-tetrahydroisoquinoline-2-carbonyl)pyrazolo[1,5-a]pyrimidin-2-yl)-3-fluorophenyl)pyrrolidine-3-carbothioamide] showed a CC50 at 3 days [1] of 45.4 µM and an EC50 [2] of 0.058 µM.
`C[C@@H]1c2ccccc2CCN1C(=O)c1cc(C2CC2)n2nc(-c3c(O)cc(N4CC[C@H](C(N)=O)C4)cc3F)cc2n1` [Compound 105, (S)-1-(4-(7-cyclopropyl-5-((R)-1-methyl-1,2,3,4-tetrahydroisoquinoline-2-carbonyl)pyrazolo[1,5-a]pyrimidin-2-yl)-3-fluoro-5-hydroxyphenyl)pyrrolidine-3-carboxamide] showed a CC50 at 3 days [1] of 83.6 µM and an EC50 [2] of 0.025 µM.
Compound `C[C@@H]1c2ccccc2CCN1C(=O)c1cc(C2CC2)n2nc(-c3c(F)cc(N4CC[C@H](C(N)=O)C4)cc3OCCO)cc2n1` [Compound 106, (S)-1-(4-(7-cyclopropyl-5-((R)-1-methyl-1,2,3,4-tetrahydroisoquinoline-2-carbonyl)pyrazolo[1,5-a]pyrimidin-2-yl)-3-fluoro-5-(2-hydroxyethoxy)phenyl)pyrrolidine-3-carboxamide] has a CC50 at 3 days [1] of 21 µM and an EC50 [2] of 0.089 µM.
